Laboratory results: article PMC5218480 (PLoS ONE, 2017)

System: MV-4-11 cells
Assay: Gene expression microarray analysis (Affymetrix PrimeView) and GSEA
Assay type: cell-based, human
Parameters: RFU PODN (11730768_x_at) / Fold change /veh PODN (11730768_x_at) / RFU LINC00158 (11744669_a_at) / Fold change /veh LINC00158 (11744669_a_at) / RFU DUSP10 (11751237_a_at) / Fold change /veh DUSP10 (11751237_a_at) / RFU ID3 (11757404_x_at) / Fold change /veh ID3 (11757404_x_at) / RFU PLEKHG5 (11737974_s_at) / Fold change /veh PLEKHG5 (11737974_s_at) / RFU LRRC4B (11730491_at) / Fold change /veh LRRC4B (11730491_at) / RFU GIMAP4 (11747438_a_at) / Fold change /veh GIMAP4 (11747438_a_at) / RFU KRT8 (11758183_x_at) / Fold change /veh KRT8 (11758183_x_at) / RFU CNN1 (11734310_a_at) / Fold change /veh CNN1 (11734310_a_at) / RFU VPS37D (11726825_at) / Fold change /veh VPS37D (11726825_at) / RFU C10orf10 (11716522_x_at) / Fold change /veh C10orf10 (11716522_x_at) / RFU KIR2DL2 /// KIR2DL4 /// KIR2DL5A /// KIR2DL5B /// KIR2DS1 /// KIR2DS2 /// KIR2DS3 /// KIR2DS4 /// KIR3DL3 /// KIR3DL3 /// KIR3DS1 (11738374_at) / Fold change /veh KIR2DL2 /// KIR2DL4 /// KIR2DL5A /// KIR2DL5B /// KIR2DS1 /// KIR2DS2 /// KIR2DS3 /// KIR2DS4 /// KIR3DL3 /// KIR3DL3 /// KIR3DS1 (11738374_at) / RFU C1QL1 (11718748_at) / Fold change /veh C1QL1 (11718748_at) / RFU TMPRSS4 (11747572_a_at) / Fold change /veh TMPRSS4 (11747572_a_at) / RFU HAMP (11756126_x_at) / Fold change /veh HAMP (11756126_x_at) / RFU RNFT2 (11725882_a_at) / Fold change /veh RNFT2 (11725882_a_at) / RFU NR4A2 (11747474_a_at) / Fold change /veh NR4A2 (11747474_a_at) / RFU ABCC12 (11746883_a_at) / Fold change /veh ABCC12 (11746883_a_at) / RFU TMEM136 (11760407_x_at) / Fold change /veh TMEM136 (11760407_x_at) / RFU CLDN22 /// WWC2 (11732394_at) / Fold change /veh CLDN22 /// WWC2 (11732394_at) / RFU HLA-DPB1 (11760878_x_at) / Fold change /veh HLA-DPB1 (11760878_x_at) / RFU SPINT1 (11716480_a_at) / Fold change /veh SPINT1 (11716480_a_at) / RFU GAP43 (11754022_s_at) / Fold change /veh GAP43 (11754022_s_at) / RFU A4GNT (11735810_at) / Fold change /veh A4GNT (11735810_at) / RFU PRB3 (11715151_x_at) / Fold change /veh PRB3 (11715151_x_at) / RFU TUBB4B (11761932_at) / Fold change /veh TUBB4B (11761932_at) / RFU CAPN14 (11732068_a_at) / Fold change /veh CAPN14 (11732068_a_at) / RFU TMCC2 (11721928_a_at) / Fold change /veh TMCC2 (11721928_a_at) / RFU IRGQ (11745062_a_at) / Fold change /veh IRGQ (11745062_a_at) / RFU FAM174B (11720279_a_at) / Fold change /veh FAM174B (11720279_a_at) / RFU TMPRSS4 (11748680_a_at) / Fold change /veh TMPRSS4 (11748680_a_at) / RFU FAM212B (11763350_a_at) / Fold change /veh FAM212B (11763350_a_at) / RFU PLEKHG5 (11743358_a_at) / Fold change /veh PLEKHG5 (11743358_a_at) / RFU ZSCAN30 (11745921_a_at) / Fold change /veh ZSCAN30 (11745921_a_at) / RFU CMKLR1 (11741424_a_at) / Fold change /veh CMKLR1 (11741424_a_at) / RFU LOC101060620 /// MAPK8IP1 (11723275_at) / Fold change /veh LOC101060620 /// MAPK8IP1 (11723275_at) / RFU SPTSSB (11747773_x_at) / Fold change /veh SPTSSB (11747773_x_at) / RFU PRSS12 (11739890_at) / Fold change /veh PRSS12 (11739890_at) / RFU BIN1 (11741810_x_at) / Fold change /veh BIN1 (11741810_x_at) / RFU WNT11 (11732464_a_at) / Fold change /veh WNT11 (11732464_a_at) / RFU C10orf10 (11716521_a_at) / Fold change /veh C10orf10 (11716521_a_at) / RFU C5orf56 (11738089_at) / Fold change /veh C5orf56 (11738089_at) / RFU CYB561 (11721691_x_at) / Fold change /veh CYB561 (11721691_x_at) / RFU ANKRD19P (11752326_a_at) / Fold change /veh ANKRD19P (11752326_a_at) / RFU OR2T12 /// OR2T33 /// OR2T8 (11738714_s_at) / Fold change /veh OR2T12 /// OR2T33 /// OR2T8 (11738714_s_at) / RFU VCAN (11748164_a_at) / Fold change /veh VCAN (11748164_a_at) / RFU JSRP1 (11732532_at) / Fold change /veh JSRP1 (11732532_at) / RFU KRTAP10-11 (11738290_x_at) / Fold change /veh KRTAP10-11 (11738290_x_at) / RFU MYO3A (11730013_a_at) / Fold change /veh MYO3A (11730013_a_at) / RFU EBF3 (11725865_a_at) / Fold change /veh EBF3 (11725865_a_at) / RFU CAMK2N1 (11719241_x_at) / Fold change /veh CAMK2N1 (11719241_x_at) / RFU C5orf56 (11738088_a_at) / Fold change /veh C5orf56 (11738088_a_at) / RFU OLFML3 (11715873_a_at) / Fold change /veh OLFML3 (11715873_a_at) / RFU LOC100653217 /// NTM (11731650_a_at) / Fold change /veh LOC100653217 /// NTM (11731650_a_at) / RFU MAPK11 (11762145_a_at) / Fold change /veh MAPK11 (11762145_a_at) / RFU FIZ1 (11724087_x_at) / Fold change /veh FIZ1 (11724087_x_at) / RFU OASL (11726364_x_at) / Fold change /veh OASL (11726364_x_at) / RFU SOX15 (11748057_x_at) / Fold change /veh SOX15 (11748057_x_at) / RFU CD79A (11719716_a_at) / Fold change /veh CD79A (11719716_a_at) / RFU HIST1H1D (11736915_at) / Fold change /veh HIST1H1D (11736915_at) / RFU CASKIN2 (11723855_a_at) / Fold change /veh CASKIN2 (11723855_a_at) / RFU LOC730098 (11760151_x_at) / Fold change /veh LOC730098 (11760151_x_at) / RFU OR4N2 (11742367_at) / Fold change /veh OR4N2 (11742367_at) / RFU PRRT2 (11749266_a_at) / Fold change /veh PRRT2 (11749266_a_at) / RFU SNX32 (11753110_a_at) / Fold change /veh SNX32 (11753110_a_at) / RFU CDHR5 (11726645_a_at) / Fold change /veh CDHR5 (11726645_a_at) / RFU RCAN1 (11760418_a_at) / Fold change /veh RCAN1 (11760418_a_at) / RFU FAM167A (11723789_a_at) / Fold change /veh FAM167A (11723789_a_at) / RFU FAM26E (11764081_at) / Fold change /veh FAM26E (11764081_at) / RFU ISYNA1 (11749810_s_at) / Fold change /veh ISYNA1 (11749810_s_at) / RFU ACY1 (11761880_at) / Fold change /veh ACY1 (11761880_at) / RFU 11764098_at / Fold change /veh 11764098_at / RFU SAMD14 (11745864_x_at) / Fold change /veh SAMD14 (11745864_x_at) / RFU NPB (11741838_a_at) / Fold change /veh NPB (11741838_a_at) / RFU TMPRSS6 (11731388_a_at) / Fold change /veh TMPRSS6 (11731388_a_at) / RFU KRTAP10-2 (11738614_at) / Fold change /veh KRTAP10-2 (11738614_at) / RFU ARHGAP8 /// PRR5-ARHGAP8 (11727945_x_at) / Fold change /veh ARHGAP8 /// PRR5-ARHGAP8 (11727945_x_at) / RFU KRTAP5-7 /// NADSYN1 (11734609_at) / Fold change /veh KRTAP5-7 /// NADSYN1 (11734609_at) / RFU RASL12 (11751679_a_at) / Fold change /veh RASL12 (11751679_a_at) / RFU CDKN2B (11736163_a_at) / Fold change /veh CDKN2B (11736163_a_at) / RFU PRF1 (11729649_at) / Fold change /veh PRF1 (11729649_at) / RFU, ZNF638 /// ZNF638-IT1 / Fold change vs veh, ZNF638 /// ZNF638-IT1 / RFU, PANK3 / Fold change vs veh, PANK3 / RFU, SH3YL1 / Fold change vs veh, SH3YL1 / RFU, ZEB2 / Fold change vs veh, ZEB2 / RFU, NRIP1 / Fold change vs veh, NRIP1 / RFU, PTTG1IP / Fold change vs veh, PTTG1IP / RFU, CAPN2 / Fold change vs veh, CAPN2 / RFU, MED14 / Fold change vs veh, MED14 / RFU, SNORA58 / Fold change vs veh, SNORA58 / RFU, C1orf63 / Fold change vs veh, C1orf63 / RFU, LRRFIP1 / Fold change vs veh, LRRFIP1 / RFU, NDUFAF7 / Fold change vs veh, NDUFAF7 / RFU, SLC12A2 / Fold change vs veh, SLC12A2 / RFU, IBTK / Fold change vs veh, IBTK / RFU, ESF1 / Fold change vs veh, ESF1 / Fold change vs veh, TMEM50B / RFU, TAOK1 / Fold change vs veh, TAOK1 / RFU, ACBD3 / Fold change vs veh, ACBD3 / RFU, TMA16 / Fold change vs veh, TMA16 / RFU, RWDD3 / Fold change vs veh, RWDD3 / RFU, BCAT1 / Fold change vs veh, BCAT1 / RFU, EDEM3 / Fold change vs veh, EDEM3 / RFU, TMEM33 / Fold change vs veh, TMEM33 / RFU, WDR75 / Fold change vs veh, WDR75 / RFU, AHCTF1 / Fold change vs veh, AHCTF1 / RFU, TFRC / Fold change vs veh, TFRC / RFU, ZDHHC17 / Fold change vs veh, ZDHHC17 / RFU, NOM1 / Fold change vs veh, NOM1 / RFU, ARL8B / Fold change vs veh, ARL8B / RFU, ZBTB11 / Fold change vs veh, ZBTB11 / RFU, TAMM41 / Fold change vs veh, TAMM41 / RFU, KIAA1704 /// LOC100996395 / Fold change vs veh, KIAA1704 /// LOC100996395 / RFU, ING1 / Fold change vs veh, ING1 / RFU, TRMT61B / Fold change vs veh, TRMT61B / RFU, FUBP3 / Fold change vs veh, FUBP3 / RFU, TP53 / Fold change vs veh, TP53 / RFU, TNKS2 / Fold change vs veh, TNKS2 / RFU, ZFP14 / Fold change vs veh, ZFP14 / RFU, ACTR2 / Fold change vs veh, ACTR2 / RFU, PPP3R1 / Fold change vs veh, PPP3R1 / RFU, PIK3R1 / Fold change vs veh, PIK3R1 / RFU, HNRNPA1 / Fold change vs veh, HNRNPA1 / RFU, RNF170 / Fold change vs veh, RNF170 / RFU, ZNF28 / Fold change vs veh, ZNF28 / RFU, RNGTT / Fold change vs veh, RNGTT / RFU, OGT / Fold change vs veh, OGT / RFU, BRD1 / Fold change vs veh, BRD1 / RFU, MARS / Fold change vs veh, MARS / RFU, ZNF655 / Fold change vs veh, ZNF655 / RFU, FAHD1 / Fold change vs veh, FAHD1 / RFU, BDP1 / Fold change vs veh, BDP1 / RFU, LRRCC1 / Fold change vs veh, LRRCC1 / RFU, ARID1A / Fold change vs veh, ARID1A / RFU, ZNF146 / Fold change vs veh, ZNF146 / RFU, ZNF330 / Fold change vs veh, ZNF330 / RFU, GPN3 / Fold change vs veh, GPN3 / RFU, C9orf123 / Fold change vs veh, C9orf123 / RFU, N4BP2L2 / Fold change vs veh, N4BP2L2 / RFU, ARFIP1 / Fold change vs veh, ARFIP1 / RFU, FAM179B / Fold change vs veh, FAM179B / RFU, BCL10 / Fold change vs veh, BCL10 / RFU, UHRF1BP1L / Fold change vs veh, UHRF1BP1L / RFU, BET1 / Fold change vs veh, BET1 / RFU, CNOT2 / Fold change vs veh, CNOT2 / RFU, ZNF268 / Fold change vs veh, ZNF268 / Fold change vs veh, ZNF507 / RFU, DGCR2 / Fold change vs veh, DGCR2 / RFU, WDSUB1 / Fold change vs veh, WDSUB1 / Fold change vs veh, HSP90B1 /// MIR3652 / RFU, ADSS / Fold change vs veh, ADSS / RFU, GK / Fold change vs veh, GK / RFU, ZNF148 / Fold change vs veh, ZNF148 / RFU, TAF9 / Fold change vs veh, TAF9 / RFU, SLC1A5 / Fold change vs veh, SLC1A5 / RFU, SLMO2 / Fold change vs veh, SLMO2 / RFU, ABCC4 / Fold change vs veh, ABCC4 / RFU, LOC101060439 /// RAP1B / Fold change vs veh, LOC101060439 /// RAP1B / RFU, RFX7 / Fold change vs veh, RFX7 / RFU, GTPBP10 / Fold change vs veh, GTPBP10 / RFU, CNEP1R1 / Fold change vs veh, CNEP1R1 / RFU, BIVM-ERCC5 /// ERCC5 / Fold change vs veh, BIVM-ERCC5 /// ERCC5 / RFU, ILF3 / Fold change vs veh, ILF3 / RFU 11762660_at / Fold change /veh 11762660_at / RFU VCAN (11757783_s_at) / Fold change /veh VCAN (11757783_s_at) / RFU DDX43 (11728927_at) / Fold change /veh DDX43 (11728927_at) / RFU KRT8 (11758188_x_at) / Fold change /veh KRT8 (11758188_x_at) / RFU NKD1 (11759106_at) / Fold change /veh NKD1 (11759106_at) / RFU SRD5A1 (11742802_a_at) / Fold change /veh SRD5A1 (11742802_a_at) / RFU TPSAB1 /// TPSB2 (11721975_s_at) / Fold change /veh TPSAB1 /// TPSB2 (11721975_s_at) / RFU GSTM3 (11746129_a_at) / Fold change /veh GSTM3 (11746129_a_at) / RFU IL23R (11737362_x_at) / Fold change /veh IL23R (11737362_x_at) / RFU TMEM51 (11727254_a_at) / Fold change /veh TMEM51 (11727254_a_at) / RFU PIWIL2 (11732686_x_at) / Fold change /veh PIWIL2 (11732686_x_at) / RFU ORM1 (11744905_x_at) / Fold change /veh ORM1 (11744905_x_at) / RFU CCDC152 (11743942_at) / Fold change /veh CCDC152 (11743942_at) / RFU ECM1 (11717891_a_at) / Fold change /veh ECM1 (11717891_a_at) / RFU IL23R (11748794_a_at) / Fold change /veh IL23R (11748794_a_at) / RFU TNFAIP8L3 (11732012_x_at) / Fold change /veh TNFAIP8L3 (11732012_x_at) / RFU MBOAT4 (11741988_at) / Fold change /veh MBOAT4 (11741988_at) / RFU 11764193_at / Fold change /veh 11764193_at / RFU TMEM53 (11763286_at) / Fold change /veh TMEM53 (11763286_at) / RFU MAGEB2 (11727129_at) / Fold change /veh MAGEB2 (11727129_at) / RFU TMEM200A (11744735_a_at) / Fold change /veh TMEM200A (11744735_a_at) / RFU CCDC152 (11751479_a_at) / Fold change /veh CCDC152 (11751479_a_at) / RFU FAM211A (11726209_a_at) / Fold change /veh FAM211A (11726209_a_at) / RFU RGS16 (11746705_a_at) / Fold change /veh RGS16 (11746705_a_at) / RFU VCAN (11755009_s_at) / Fold change /veh VCAN (11755009_s_at) / RFU RHOB (11743442_s_at) / Fold change /veh RHOB (11743442_s_at) / RFU RGS16 (11720943_a_at) / Fold change /veh RGS16 (11720943_a_at) / RFU RGS16 (11720944_at) / Fold change /veh RGS16 (11720944_at) / RFU, VPS4B / Fold change vs veh, VPS4B / RFU, CREB1 / Fold change vs veh, CREB1 / RFU, DNAJC13 / Fold change vs veh, DNAJC13 / RFU, GNAQ / Fold change vs veh, GNAQ / RFU, CDK5R1 / Fold change vs veh, CDK5R1 / RFU, ZRANB3 / Fold change vs veh, ZRANB3 / RFU, CUL4A / Fold change vs veh, CUL4A / RFU, CCNY / Fold change vs veh, CCNY / RFU, UFL1 / Fold change vs veh, UFL1 / RFU, COG3 / Fold change vs veh, COG3 / RFU, DIAPH2 / Fold change vs veh, DIAPH2 / RFU, SKA2 / Fold change vs veh, SKA2 / RFU, AFF3 / Fold change vs veh, AFF3 / RFU, LMF1 / Fold change vs veh, LMF1 / RFU, IPO11 / Fold change vs veh, IPO11 / RFU, DFFB / Fold change vs veh, DFFB / RFU, FOXP1 / Fold change vs veh, FOXP1 / RFU, CARD8 / Fold change vs veh, CARD8 / RFU, STRN3 / Fold change vs veh, STRN3 / RFU, ADK / Fold change vs veh, ADK / RFU, RASSF2 / Fold change vs veh, RASSF2 / RFU, WIPF1 / Fold change vs veh, WIPF1 / RFU, LARP1B / Fold change vs veh, LARP1B / RFU, RASA1 / Fold change vs veh, RASA1 / RFU, RB1 / Fold change vs veh, RB1 / RFU, PPFIA1 / Fold change vs veh, PPFIA1 / RFU, MAT2A / Fold change vs veh, MAT2A / RFU, CCT5 / Fold change vs veh, CCT5 / RFU, WDR92 / Fold change vs veh, WDR92 / RFU, CUX1 / Fold change vs veh, CUX1 / RFU, TTC7A / Fold change vs veh, TTC7A / RFU, TMEM135 / Fold change vs veh, TMEM135 / RFU, DEPTOR / Fold change vs veh, DEPTOR / RFU, CPM / Fold change vs veh, CPM / RFU, DNAJB6 / Fold change vs veh, DNAJB6 / RFU, CACNA2D3 / Fold change vs veh, CACNA2D3 / RFU, DTX4 / Fold change vs veh, DTX4 / RFU, TFCP2 / Fold change vs veh, TFCP2 / RFU, GMCL1 /// GMCL1P1 / Fold change vs veh, GMCL1 /// GMCL1P1 / RFU, AEBP2 / Fold change vs veh, AEBP2 / RFU, SNHG1 /// SNORD22 /// SNORD25 /// SNORD26 /// SNORD27 /// SNORD28 /// SNORD29 /// SNORD31 / Fold change vs veh, SNHG1 /// SNORD22 /// SNORD25 /// SNORD26 /// SNORD27 /// SNORD28 /// SNORD29 /// SNORD31 / Fold change (Aza/veh), C12orf56 (ProbeSet 11735607_a_at) / Fold change (ACY-1035/veh), C12orf56 (ProbeSet 11735607_a_at) / Fold change (Aza/veh), FGFR1OP (ProbeSet 11751329_s_at) / Fold change (ACY-1035/veh), FGFR1OP (ProbeSet 11751329_s_at) / Fold change (Aza/veh), VPS36 (ProbeSet 11739960_a_at) / Fold change (ACY-1035/veh), VPS36 (ProbeSet 11739960_a_at) / RFU SYPL1 (11715823_x_at) / Fold change /veh SYPL1 (11715823_x_at) / RFU IGFBP7 (11715501_s_at) / Fold change /veh IGFBP7 (11715501_s_at) / RFU REEP3 (11722064_at) / Fold change /veh REEP3 (11722064_at) / RFU IGLL1 (11728026_x_at) / Fold change /veh IGLL1 (11728026_x_at): dose or concentration left out as unconfirmed
Conditions: MV-4-11 cells, 48 hours

Q: For `Nc1ccc(-c2cccs2)cc1NC(=O)c1ccc2c(c1)cc(C1CC1)n2CCN1CCOCC1` [ACY-1035], which “Fold change /veh LRRC4B (11730491_at)” value is on record?
A: 1.07
